ChEMBL document CHEMBL1201862, “PubChem BioAssay data set” (2004)
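Exposure lasted 48 hours, with cells grown in 96-well plates and compounds tested at five concentrations. GI50 is the concentration that inhibits growth by half.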 Active and inactive are the calls of the source. Cut-off read from the data, not from the text of the source: active = GI50 up to about 1.1 µM and inactive = higher.

What was measured:
Experiment in all cases: inhibition of tumour cell growth, NCI panel, 48 h
[1] = test system: HCT-116
[2] = test system: SF-268
[3] = test system: SK-MEL-5
[4] = test system: OVCAR-4
[5] = test system: HOP-62
[6] = test system: Hs-578T
[7] = test system: MOLT-4
[8] = test system: ACHN
[9] = test system: SF-539
[10] = test system: MDA-N
[11] = test system: T47D
[12] = test system: DU-145
[13] = test system: HL-60
[14] = test system: UACC-62
[15] = test system: SR
[16] = test system: OVCAR-3
[17] = test system: TK-10
[18] = test system: HCC 2998
[19] = test system: SW-620
[20] = test system: BT-549

Measured: GI50

O=[N+]([O-])C(/C=C(\Cl)[N+](=O)[O-])=C(N1CCCCC1)N1CCCCC1
inactive: [1] 21.7 µM | [2] 51.2 µM | [3] 21.7 µM | [4] 23.9 µM | [5] 39.6 µM | [6] 58.2 µM | [7] 30.7 µM | [8] 48.9 µM | [9] 25.9 µM | [10] 22.4 µM | [11] 53 µM | [12] 62.5 µM | [13] 20.1 µM | [14] 18.6 µM | [15] 14.1 µM | [16] 27.5 µM | [17] > 100 µM | [18] 44.7 µM

O=C1CCc2nc3ncccc3cc2C1
inactive: [1] 65.5 µM | [2] 51.8 µM | [3] > 100 µM | [19] 54.8 µM | [4] > 100 µM | [5] > 100 µM | [7] 29.9 µM | [8] > 100 µM | [10] 63.5 µM | [11] > 100 µM | [16] 47.2 µM | [20] > 100 µM | [17] > 100 µM | [18] > 100 µM

CN1CN(c2ccccc2)C2(CCN(CCCC3(c4cccs4)OCCO3)CC2)C1=O
inactive: [1] > 100 µM | [2] > 100 µM | [3] 91 µM | [19] > 100 µM | [4] > 100 µM | [5] > 100 µM | [6] > 100 µM | [7] > 100 µM | [8] > 100 µM | [9] > 100 µM | [10] > 100 µM | [11] > 100 µM | [12] > 100 µM | [13] > 100 µM | [14] > 100 µM | [15] > 100 µM | [16] > 100 µM | [17] > 100 µM | [18] > 100 µM

CCCCCCc1cc2cc(-c3cn4c(n3)sc3ccccc34)c(=O)oc2cc1O
inactive: [1] > 95.1 µM | [2] > 100 µM | [3] > 100 µM | [19] > 78.7 µM | [4] 3.98 µM | [5] 73.1 µM | [6] > 25.1 µM | [7] > 100 µM | [8] > 100 µM | [9] > 100 µM | [11] > 100 µM | [12] > 100 µM | [13] > 60.3 µM | [14] 2.36 µM | [15] > 29.8 µM | [16] > 100 µM | [20] > 100 µM | [17] > 100 µM | [18] > 100 µM

CNC(=O)OCC1=C(COC(=O)NC)C(C)N(c2ccc(OC)cc2)C1 (configuration not stated)
inactive: [1] > 100 µM | [2] > 100 µM | [3] > 100 µM | [19] > 100 µM | [4] 54.6 µM | [5] 40.3 µM | [6] > 100 µM | [7] 33.6 µM | [8] 62.2 µM | [9] 59.8 µM | [11] 37.1 µM | [12] > 100 µM | [13] 23.8 µM | [14] 15.3 µM | [15] 15.7 µM | [16] 43 µM | [20] > 100 µM | [17] 11.5 µM

COC(=O)[C@@H]1CN(C(=O)c2ccccc2)C(=O)N1C(=O)OCc1ccccc1
inactive: [1] > 100 µM | [2] > 100 µM | [3] > 100 µM | [19] > 100 µM | [4] > 100 µM | [5] > 100 µM | [6] > 100 µM | [7] > 100 µM | [8] > 100 µM | [9] > 100 µM | [10] > 100 µM | [11] > 100 µM | [12] > 100 µM | [13] > 100 µM | [14] > 100 µM | [15] > 100 µM | [16] > 100 µM | [17] > 100 µM | [18] > 100 µM

O=[N+]([O-])CC(SCc1ccccc1)c1ccc2c(c1)OCO2 (configuration not stated)
inactive: [1] 1.69 µM | [2] 9.4 µM | [3] 12.2 µM | [19] 3.81 µM | [4] 13.2 µM | [5] 17.4 µM | [6] 6.31 µM | [7] 3.37 µM | [8] 13.1 µM | [9] 4.01 µM | [10] 2.45 µM | [11] 19.6 µM | [12] 14.5 µM | [13] 1.58 µM | [14] 9.89 µM | [15] 3.13 µM | [16] 6.12 µM | [17] 10.8 µM | [18] 5.57 µM

CC(C)=CCNc1nc(Cl)nc2[nH]cnc12
inactive: [1] 24.7 µM | [2] 55 µM | [3] 29.3 µM | [19] > 100 µM | [4] 54.1 µM | [5] 27.9 µM | [6] 62.8 µM | [7] 84.9 µM | [8] 54.1 µM | [9] > 100 µM | [10] > 100 µM | [11] 92 µM | [12] > 100 µM | [13] > 100 µM | [14] > 100 µM | [15] 37 µM | [16] > 100 µM | [17] 71.6 µM | [18] > 100 µM

CC1=C(C(=O)N(C)c2ccc(Cl)c(C(=O)OC(C)C)c2)SCCO1
inactive: [1] 59.2 µM | [2] > 100 µM | [3] 29.6 µM | [19] > 100 µM | [4] 42.4 µM | [6] > 100 µM | [7] 38.5 µM | [8] 61.5 µM | [9] > 100 µM | [11] 31.2 µM | [12] > 100 µM | [13] 33.7 µM | [14] 53.1 µM | [16] > 100 µM | [20] 40.9 µM | [17] 84.7 µM | [18] > 100 µM

O=C(NN1C(=O)C=CC1=O)c1ccccc1Nc1ccccc1C(=O)NN1C(=O)C=CC1=O
inactive: [1] > 100 µM | [2] > 100 µM | [3] > 100 µM | [19] > 100 µM | [4] > 100 µM | [5] > 100 µM | [7] > 100 µM | [8] > 100 µM | [9] > 100 µM | [10] > 100 µM | [11] > 100 µM | [12] > 100 µM | [13] > 100 µM | [14] > 100 µM | [15] > 100 µM | [16] > 100 µM | [20] > 100 µM | [17] > 100 µM | [18] > 100 µM

CCOP(=O)(OCC)C(c1ccc(F)cc1)N(C(=O)NC(F)(F)F)c1ccc(OC)cc1 (configuration not stated)
inactive: [1] > 100 µM | [2] > 100 µM | [3] > 100 µM | [19] > 100 µM | [5] > 100 µM | [6] > 100 µM | [7] > 100 µM | [8] > 100 µM | [9] > 100 µM | [10] > 100 µM | [12] > 100 µM | [13] > 100 µM | [15] > 100 µM | [16] > 100 µM | [17] > 100 µM | [18] > 100 µM
